This note sets out measurements from patent publication US10058487B2, “Polymerizable dental material” (Muhlbauer Technology GmbH, priority 2014, dated 2018).

≈ marks a conversion by molar mass, not a printed value. Where two headings read alike, the source gives them in different places.

A short description of the data set: Determination of the water solubility by UV/visible spectroscopy. In kind it is physicochemical. Conditions: saturated solution in deionized water, 23±2° C. As to the method:
The water solubility was determined in deionized water by UV/visible spectroscopy. The spectra were recorded with a UV/visible spectrometer (Evolution 600, Thermo Scientific) between 200-900 nm. The measurement was carried out in quartz cells (path length 10 mm). The pure solvent deionized water was used for the background spectrum. The background spectrum was subtracted from the spectra of the coinitiators.
Dilute solutions of the different coinitiators with known concentrations were prepared in deionized water. The absorption of the different coinitiators was measured in the absorption maximum (between 290-310 nm) and a linear relationship between the known concentrations and the measured absorptions was determined.
Saturated aqueous solutions of the coinitiators were diluted up to the point that the measured absorption falls in the linear region found above. The concentrations of the coinitiators in the saturated aqueous solutions are determined via the Lambert-Beer law.

The mark [1] stands for this setting: 23 °C, thermodynamic from solid, read-out: Solubility.

For the molecule `CCCNC(=O)c1ccc(N(C)C)cc1` [4-Dimethylamino-N-propylbenzamide], the solubility under setting [1] was 680 µg/mL (≈ 3300 µM).

`CN(C)c1ccc(C(N)=O)cc1` [4-Dimethylaminobenzamide]: the solubility under setting [1] is 427 µg/mL (≈ 2600 µM).

With `CCCCC(CC)COC(=O)c1ccc(N(C)C)cc1` (centres unmarked) [EHA, 2-Ethylhexyl 4-dimethylaminobenzoate], the solubility under setting [1] was determined as 26 µg/mL (≈ 93.7 µM).

`COCCNC(=O)c1ccc(N(C)C)cc1` [4-Dimethylamino-N-(2-methoxyethyl)benzamide]: the solubility under setting [1] worked out at 2670 µg/mL (≈ 12000 µM).

`CN(C)c1ccc(C#N)cc1` [4-Dimethylaminobenzonitrile]: the solubility under setting [1] worked out at 278 µg/mL (≈ 1900 µM).

On to “Polyethylene glycol monomethyl ether 4-dimethylaminobenzoate [PEGA]”, for which the solubility is over 766000 µg/mL.

Turning to `CCCCOCCOC(=O)c1ccc(N(C)C)cc1` [2-(n-Butoxy)ethyl 4-dimethylaminobenzoate], the solubility under setting [1] is 35 µg/mL (≈ 132 µM).

Regarding `CCOC(=O)c1ccc(N(C)C)cc1` [Ethyl 4-dimethylaminobenzoate], the solubility under setting [1] turned out to be 36 µg/mL (≈ 186 µM).
